Molecules are shown by their SMILES.

From US20230372498A1, “PLK1 SELECTIVE DEGRADATION INDUCING COMPOUND” (UPPTHERA, priority 2020, published 2023) come the findings set out here.

This assay concerns the target T1, PLK1 (Homo sapiens, UniProt P53350).
T1 construct: endogenous in cells; host or cells: HeLa
Nature of the assay: PLK1 protein degradation in HeLa cells, Western blotting (PLK1/GAPDH ratio). Particulars: thymidine block and release, 6 hours compound incubation, 10 points three-fold from 3 μM, PLK1 to GAPDH ratio, read-out: Dmax. The format is cell-based. The procedure, abridged:
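PLK1 level measured by Western blot as PLK1/GAPDH in HeLa lysates (15 μg protein per lane). Cells were blocked with 2 mM thymidine 24 h, released 4 h, and exposed 6 h to compound, 10 concentrations, 3-fold steps, top 3 μM.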

T1 sequence (P53350 whole entry): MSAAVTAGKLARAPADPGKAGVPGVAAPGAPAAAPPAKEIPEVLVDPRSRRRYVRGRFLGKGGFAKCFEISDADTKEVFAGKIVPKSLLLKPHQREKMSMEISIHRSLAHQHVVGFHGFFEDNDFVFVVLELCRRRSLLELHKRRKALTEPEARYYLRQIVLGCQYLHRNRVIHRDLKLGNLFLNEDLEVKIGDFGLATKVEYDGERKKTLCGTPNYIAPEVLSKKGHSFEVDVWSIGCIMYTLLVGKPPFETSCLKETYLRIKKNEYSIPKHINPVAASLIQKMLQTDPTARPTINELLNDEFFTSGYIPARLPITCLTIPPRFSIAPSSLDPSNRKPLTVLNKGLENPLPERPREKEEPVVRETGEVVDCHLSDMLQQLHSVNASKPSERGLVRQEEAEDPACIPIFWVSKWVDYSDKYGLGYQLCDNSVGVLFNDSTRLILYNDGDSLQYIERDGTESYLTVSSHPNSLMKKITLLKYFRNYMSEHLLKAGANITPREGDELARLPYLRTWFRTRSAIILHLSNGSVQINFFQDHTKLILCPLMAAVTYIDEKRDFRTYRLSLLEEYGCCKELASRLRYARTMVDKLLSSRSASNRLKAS

Turning to `COc1cc(C(=O)NCCOCCOCCNc2cccc3c2C(=O)N(C2CCC(=O)NC2=O)C3=O)ccc1Nc1ncc2c(n1)N(C1CCCC1)CC(F)(F)C(=O)N2C` (centres unmarked) [Example 168, 4-((9-cyclopentyl-7,7-difluoro-5-methyl-6-oxo-6,7,8,9-tetrahydro-5H-pyrimido[4,5-b][1,4]diazepin-2-yl)amino)-N-(2-(2-(2-((2-(2,6-dioxopiperidin-3-yl)-1,3-dioxoisoindolin-4-yl)amino)ethoxy)ethoxy)ethyl)-3-methoxybenzamide], the Dmax is not below 80%.

On to `COc1cc(C(=O)NCCCOCCCOCCNc2cccc3c2C(=O)N(C2CCC(=O)NC2=O)C3=O)ccc1Nc1ncc2c(n1)N(C1CCCC1)CC(F)(F)C(=O)N2C` (centres unmarked) [Example 169, 4-((9-cyclopentyl-7,7-difluoro-5-methyl-6-oxo-6,7,8,9-tetrahydro-5H-pyrimido[4,5-b][1,4]diazepin-2-yl)amino)-N-(3-(3-(2-((2-(2,6-dioxopiperidin-3-yl)-1,3-dioxoisoindolin-4-yl)amino)ethoxy)propoxy)propyl)-3-methoxybenzamide], for which the Dmax is not below 80%. In the case of `CN1C(=O)C(F)(F)CN(C2CCCC2)c2nc(Nc3ccc(C(=O)NCCCOCCCOCCNc4cccc5c4C(=O)N(C4CCC(=O)NC4=O)C5=O)cc3)ncc21` (centres unmarked) [Example 170, 4-((9-cyclopentyl-7,7-difluoro-5-methyl-6-oxo-6,7,8,9-tetrahydro-5H-pyrimido[4,5-b][1,4]diazepin-2-yl)amino)-N-(3-(3-(2-((2-(2,6-dioxopiperidin-3-yl)-1,3-dioxoisoindolin-4-yl)amino)ethoxy)propoxy)propyl)benzamide], the Dmax was not below 80%. For `COc1cc(C(=O)NCCCOCCCOCCNc2cccc3c2CN(C2CCC(=O)NC2=O)C3=O)ccc1Nc1ncc2c(n1)N(C1CCCC1)CC(F)(F)C(=O)N2C` (centres unmarked) [Example 171, 4-((9-cyclopentyl-7,7-difluoro-5-methyl-6-oxo-6,7,8,9-tetrahydro-5H-pyrimido[4,5-b][1,4]diazepin-2-yl)amino)-N-(3-(3-(2-((2-(2,6-dioxopiperidin-3-yl)-1-oxoisoindolin-4-yl)amino)ethoxy)propoxy)propyl)-3-methoxybenzamide], the Dmax was not below 80%.

Take `COc1cc(C(=O)NC2CCN(CCOCCOCCOCCOCCOCCOCCOCCNc3cccc4c3C(=O)N(C3CCC(=O)NC3=O)C4=O)CC2)c(F)cc1Nc1ncc2c(n1)N(C1CCCC1)CC(F)(F)C(=O)N2C` (centres unmarked) [Example 172, 4-((9-cyclopentyl-7,7-difluoro-5-methyl-6-oxo-6,7,8,9-tetrahydro-5H-pyrimido[4,5-b][1,4]diazepin-2-yl)amino)-N-(1-(23-((2-(2,6-dioxopiperidin-3-yl)-1,3-dioxoisoindolin-4-yl)amino)-3,6,9,12,15,18,21-heptaoxatricosyl)piperidin-4-yl)-2-fluoro-5-methoxybenzamide]: the Dmax was not below 80%.

`COc1cc(C(=O)N[C@H]2CCN(C(=O)CCCCN3CCN(c4cccc5c4C(=O)N(C4CCC(=O)NC4=O)C5=O)CC3)C2)c(F)cc1Nc1ncc2c(n1)N(C1CCCC1)CC(F)(F)C(=O)N2C` (stereo partly drawn) [Example 173, 4-((9-cyclopentyl-7,7-difluoro-5-methyl-6-oxo-6,7,8,9-tetrahydro-5H-pyrimido[4,5-b][1,4]diazepin-2-yl)amino)-N-((3S)-1-(5-(4-(2-(2,6-dioxopiperidin-3-yl)-1,3-dioxoisoindolin-4-yl)piperazin-1-yl)pentanoyl)pyrrolidin-3-yl)-2-fluoro-5-methoxybenzamide]: the Dmax was not below 80%.

Turning to `COc1cc(C(=O)N[C@H]2CCN(C(=O)CCN3CCN(c4ccc5c(c4)C(=O)N(C4CCC(=O)NC4=O)C5=O)CC3)C2)ccc1Nc1ncc2c(n1)N(C1CCCC1)CC(F)(F)C(=O)N2C` (stereo partly drawn) [Example 174, 4-((9-cyclopentyl-7,7-difluoro-5-methyl-6-oxo-6,7,8,9-tetrahydro-5H-pyrimido [4,5-b][1,4]diazepin-2-yl)amino)-N-((3S)-1-(3-(4-(2-(2,6-dioxopiperidin-3-yl)-1,3-dioxoisoindolin-5-yl)piperazin-1-yl)propanoyl)pyrrolidin-3-yl)-3-methoxybenzamide], the Dmax is not below 80%.

As for `COc1cc(C(=O)N[C@H]2CCN(C(=O)CCCN3CC4(C3)CN(c3cccc5c3C(=O)N(C3CCC(=O)NC3=O)C5=O)C4)C2)c(F)cc1Nc1ncc2c(n1)N(C1CCCC1)CC(F)(F)C(=O)N2C` (stereo partly drawn) [Example 175, 4-((9-cyclopentyl-7,7-difluoro-5-methyl-6-oxo-6,7,8,9-tetrahydro-5H-pyrimido[4,5-b][1,4]diazepin-2-yl)amino)-N-((3S)-1-(4-(6-(2-(2,6-dioxopiperidin-3-yl)-1,3-dioxoisoindolin-4-yl)-2,6-diazaspiro[3.3]heptan-2-yl)butanoyl)pyrrolidin-3-yl)-2-fluoro-5-methoxybenzamide], the greatest degradation seen (Dmax) is not below 80%.
